Measured values from US9689021B2, “Method for measuring beta-lactam antibiotics” (priority 2011, dated 2017).
Like-named read-outs stand apart in the source and are kept apart here.

How the values were obtained:
[1] = biological target: class C beta-lactamase of Citrobacter freundii (Citrobacter freundii, UniProt P05193); conditions: cited from earlier work
[2] = biological target: class C beta-lactamase of Pseudomonas aeruginosa (Pseudomonas aeruginosa, UniProt P24735); conditions: cited from earlier work
[3] = biological target: class C beta-lactamase of Escherichia coli K12 (Escherichia coli, UniProt P00811); conditions: cited from earlier work
[4] = tested on: class C beta-lactamase of Enterobacter cloacae 908R; conditions: cited from earlier work
[5] = biological target: class C beta-lactamase of Serratia marcescens (Serratia marcescens, UniProt P18539); conditions: cited from earlier work
[6] = biological target: class C beta-lactamase of Enterobacter cloacae P99 (Enterobacter cloacae, UniProt P05364); conditions: cited from earlier work
P99 beta-lactamase [7] = biological target: T1, P99 beta-lactamase (Enterobacter cloacae, UniProt P05364); assay: Kinetic assay, reporter substrate competition (colorimetric assay); assay type: biochemical; set-up: made in house; host or cells: E. coli BL21(DE3), pET28-P99
From the text: (§1) The colorimetric assay used the competition between a reporter substrate and a beta-lactam antibiotic towards the catalytic site of the class C beta-lactamase. In the absence of beta-lactam antibiotic, the class C beta-lactamase P99 hydrolyzed rapidly the reporter substrate and this reaction produced a deep red (nitrocefin) or yellow (CENTA) coloration.
(§2) In the presence of beta-lactam antibiotic, P99 catalytic activity was less available and thus less able to hydrolyze the reporter substrate. Accordingly, the higher the concentration of beta-lactam antibiotic, the lower the coloration of the medium. In this enzymatic competitive kinetic assay, the UV-Visible absorbance was inversely proportional to the concentration of beta-lactam antibiotic.
(§3) Report substrate: A stock solution of reporter substrate consisting of 10 mM of CENTA in HEPES (4-(2-hydroxyethyl)-1-piperazineethanesulfonic acid) pH 7.8 (20 mM)/NaCl (200 mM) buffer was diluted 10 times in HEPES pH 7.8 (20 mM)/NaCl (200 mM) buffer.
(§4) Solution of enzyme: in a spectrophotometer cell, containing HEPES/NaCl buffer (400 μL) and CENTA (100 μL, 100 μM); 20 μL of P99 enzyme solution was added. The concentration of P99 enzyme was variable in function of the preparation and ranged between 0.01 mg/ml to 100 mg/ml. The absorbance variation was measured at 405 nm during 1 min. The enzyme solution used in the experiment was then diluted until the absorbance variation was comprised between 35 and 45 mUAbs/min cm^−1. This diluted solution was further used in this example.
(§5) 8 standard solutions per antibiotic tested were deposited on a 96-well microplate (40 μL).
(§6) The absorbance was measured using a microplate reader, with each column being measured separately. The program comprised following the kinetic during 4 min, with 1 measure at 405 nm every 10 seconds (24 measures). In each well and simultaneously, a mixture of 45 μl HEPES/NaCl buffer and 5 μl P99 solution was added. The same mixture was used for the 8 wells of each column, and thus prepared in advance for distribution with a multi-channel pipette. After 1 min incubation at 20° C., the reading was started, and KC Junior™ software (BioTek Instruments, Winooski, Vt.) was used to calculate the slope of each reaction kinetic. The experiments were made in triplicate and reproduced over 5 different days.
(§7) Kinetic assays with the P99 beta-lactamase and with P99A266C beta-lactamase were performed in order to test and compare the enzyme activities.
Target sequence in this assay (P05364 22-380, added parts left off): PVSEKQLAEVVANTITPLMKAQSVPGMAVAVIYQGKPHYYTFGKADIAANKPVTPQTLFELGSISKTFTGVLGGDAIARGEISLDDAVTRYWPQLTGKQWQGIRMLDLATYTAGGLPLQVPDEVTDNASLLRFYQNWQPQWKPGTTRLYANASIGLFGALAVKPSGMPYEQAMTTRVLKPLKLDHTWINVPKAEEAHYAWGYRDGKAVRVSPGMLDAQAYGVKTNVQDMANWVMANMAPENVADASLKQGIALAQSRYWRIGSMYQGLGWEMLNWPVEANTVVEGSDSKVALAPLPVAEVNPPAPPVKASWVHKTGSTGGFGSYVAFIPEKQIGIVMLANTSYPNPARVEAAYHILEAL

P99A266C beta-lactamase = biological target: T2, P99A266C beta-lactamase (Enterobacter cloacae, UniProt P05364, A266C); assay: as above; assay type: biochemical, Enterobacter cloacae P99
T2 construct: made in house; host or cells: E. coli BL21(DE3), pET28 vector
From the text: as §1, §2, §3, §4, §5, §6, §7

P99 beta-lactamase [8] = biological target: T1, P99 beta-lactamase; assay type: biochemical
Target sequence in this assay (P05364 21-381): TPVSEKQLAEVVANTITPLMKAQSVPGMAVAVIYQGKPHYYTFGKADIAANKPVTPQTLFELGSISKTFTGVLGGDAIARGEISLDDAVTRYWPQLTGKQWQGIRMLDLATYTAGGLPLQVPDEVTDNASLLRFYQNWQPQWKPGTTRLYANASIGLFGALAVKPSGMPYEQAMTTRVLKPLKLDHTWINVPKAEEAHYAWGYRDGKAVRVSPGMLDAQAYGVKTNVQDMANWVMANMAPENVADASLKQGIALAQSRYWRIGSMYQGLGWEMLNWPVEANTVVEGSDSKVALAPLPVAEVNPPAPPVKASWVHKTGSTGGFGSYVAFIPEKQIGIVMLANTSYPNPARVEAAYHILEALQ

T2 sequence (P05364 other isoform, or with tags, fused parts or gaps A266C): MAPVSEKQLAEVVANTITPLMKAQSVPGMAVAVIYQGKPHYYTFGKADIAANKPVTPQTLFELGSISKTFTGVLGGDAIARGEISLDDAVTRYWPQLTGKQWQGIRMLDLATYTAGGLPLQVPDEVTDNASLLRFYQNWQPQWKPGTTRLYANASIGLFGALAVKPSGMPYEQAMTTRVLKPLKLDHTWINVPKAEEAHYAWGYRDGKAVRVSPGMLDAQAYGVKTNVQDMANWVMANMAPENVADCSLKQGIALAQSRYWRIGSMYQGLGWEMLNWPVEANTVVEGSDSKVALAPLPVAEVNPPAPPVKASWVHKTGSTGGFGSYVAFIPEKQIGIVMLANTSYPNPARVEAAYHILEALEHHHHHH
Chain of class C beta-lactamase of Pseudomonas aeruginosa (P24735 27-397): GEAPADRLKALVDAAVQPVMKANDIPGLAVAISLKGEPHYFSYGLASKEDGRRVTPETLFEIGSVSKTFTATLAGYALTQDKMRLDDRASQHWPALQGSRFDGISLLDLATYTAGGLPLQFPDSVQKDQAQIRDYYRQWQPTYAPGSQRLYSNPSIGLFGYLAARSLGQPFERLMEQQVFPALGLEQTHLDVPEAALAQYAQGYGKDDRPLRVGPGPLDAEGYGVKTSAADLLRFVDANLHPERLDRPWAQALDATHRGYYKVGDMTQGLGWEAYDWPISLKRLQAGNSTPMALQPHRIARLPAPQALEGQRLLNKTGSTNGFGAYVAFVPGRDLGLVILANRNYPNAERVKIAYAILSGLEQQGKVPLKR
Chain of class C beta-lactamase of Enterobacter cloacae P99 (P05364 21-381): as the sequence (P05364 21-381) above
Chain of class C beta-lactamase of Serratia marcescens (P18539 22-376): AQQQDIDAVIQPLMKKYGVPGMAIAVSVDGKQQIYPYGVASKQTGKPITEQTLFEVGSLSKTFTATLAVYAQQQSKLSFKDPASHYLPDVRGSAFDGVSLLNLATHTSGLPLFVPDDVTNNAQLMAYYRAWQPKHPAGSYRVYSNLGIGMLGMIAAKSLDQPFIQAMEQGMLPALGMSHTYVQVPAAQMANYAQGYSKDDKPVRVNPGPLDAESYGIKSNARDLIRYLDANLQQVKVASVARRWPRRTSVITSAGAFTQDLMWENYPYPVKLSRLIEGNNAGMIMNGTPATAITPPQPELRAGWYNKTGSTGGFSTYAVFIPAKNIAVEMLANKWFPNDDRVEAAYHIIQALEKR
Chain of class C beta-lactamase of Citrobacter freundii (P05193 21-381): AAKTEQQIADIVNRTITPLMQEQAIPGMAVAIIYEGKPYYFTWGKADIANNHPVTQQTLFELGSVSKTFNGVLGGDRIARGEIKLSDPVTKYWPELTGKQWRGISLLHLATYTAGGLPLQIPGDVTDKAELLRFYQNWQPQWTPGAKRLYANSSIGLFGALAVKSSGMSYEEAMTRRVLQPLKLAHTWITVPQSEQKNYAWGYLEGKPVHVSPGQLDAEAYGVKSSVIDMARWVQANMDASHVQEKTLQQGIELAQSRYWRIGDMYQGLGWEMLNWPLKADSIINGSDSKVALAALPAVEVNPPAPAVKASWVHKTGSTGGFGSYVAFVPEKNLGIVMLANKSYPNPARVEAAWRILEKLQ
Chain of class C beta-lactamase of Escherichia coli K12 (P00811 20-377): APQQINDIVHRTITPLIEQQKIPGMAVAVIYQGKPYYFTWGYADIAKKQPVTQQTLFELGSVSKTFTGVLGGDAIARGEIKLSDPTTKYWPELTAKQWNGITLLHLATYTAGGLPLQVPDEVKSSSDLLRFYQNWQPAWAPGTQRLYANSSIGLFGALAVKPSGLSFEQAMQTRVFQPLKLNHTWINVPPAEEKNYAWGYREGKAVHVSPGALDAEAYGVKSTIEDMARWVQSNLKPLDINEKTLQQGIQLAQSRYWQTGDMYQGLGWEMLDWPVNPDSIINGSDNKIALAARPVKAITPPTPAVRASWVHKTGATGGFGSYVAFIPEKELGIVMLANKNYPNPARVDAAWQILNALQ

O=C(Cc1cccs1)N[C@@H]1C(=O)N2C(C(=O)O)=C(/C=C/c3ccc([N+](=O)[O-])cc3[N+](=O)[O-])CS[C@H]12 [Nitrocefin]
kcat [1]: 330 s⁻¹
kcat ([2]; Pseudomonas aeruginosa): 742 s⁻¹
Km [2]: 27 µM
kcat [3]: 490 s⁻¹
Km [4]: 23 µM
kcat [4]: 780 s⁻¹
kcat ([5]; Serratia marcescens): 1240 s⁻¹
Km [5]: 40 µM
kcat [6]: 780 s⁻¹
Km ([6]; read-out: Km): 25 µM

CCN1CCN(C(=O)N[C@@H](C(=O)N[C@@H]2C(=O)N3[C@@H]2SC(C)(C)[C@@H]3C(=O)O)c2ccccc2)C(=O)C1=O [Piperacillin]
P99 rate (P99 beta-lactamase [7]; antibiotic 5 ug/ml): 9.7 mUAbs/min
P99 rate (P99 beta-lactamase [7]; antibiotic 10 ug/ml): 6.4 mUAbs/min
P99 rate (P99 beta-lactamase [7]; antibiotic 20 ug/ml): 4.0 mUAbs/min
P99 rate (P99 beta-lactamase [7]; antibiotic 40 ug/ml): 2.4 mUAbs/min
Diff. (%) P99 vs P99A266C (P99A266C beta-lactamase; antibiotic 5 ug/ml): 16%
P99A266C rate (P99A266C beta-lactamase; antibiotic 5 ug/ml): 8.3 mUAbs/min
Diff. (%) P99 vs P99A266C (P99A266C beta-lactamase; antibiotic 10 ug/ml): 4%
P99A266C rate (P99A266C beta-lactamase; antibiotic 10 ug/ml): 6.1 mUAbs/min
Diff. (%) P99 vs P99A266C (P99A266C beta-lactamase; antibiotic 20 ug/ml): 6%
P99A266C rate (P99A266C beta-lactamase; antibiotic 20 ug/ml): 3.8 mUAbs/min
Diff. (%) P99 vs P99A266C (P99A266C beta-lactamase; antibiotic 40 ug/ml): −4%
P99A266C rate (P99A266C beta-lactamase; antibiotic 40 ug/ml): 2.5 mUAbs/min

ampicillin-fluorescein [Ampi-flu]
v0 (standard curve) (P99 beta-lactamase [8]; 0.1 mg/L): 0.2638 ΔAbs482/min
v0/v0max (standard curve) (P99 beta-lactamase [8]; 0.1 mg/L): 98%
v0 (standard curve) (P99 beta-lactamase [8]; 0.5 mg/L): 0.2336 ΔAbs482/min
v0/v0max (standard curve) (P99 beta-lactamase [8]; 0.5 mg/L): 87%
v0 (standard curve) (P99 beta-lactamase [8]; 1.5 mg/L): 0.169 ΔAbs482/min
v0/v0max (standard curve) (P99 beta-lactamase [8]; 1.5 mg/L): 63%
v0 (standard curve) (P99 beta-lactamase [8]; 3 mg/L): 0.1064 ΔAbs482/min
v0/v0max (standard curve) (P99 beta-lactamase [8]; 3 mg/L): 39%
v0 (standard curve) (P99 beta-lactamase [8]; 5 mg/L): 0.063 ΔAbs482/min
v0/v0max (standard curve) (P99 beta-lactamase [8]; 5 mg/L): 23%
v0 (standard curve) (P99 beta-lactamase [8]; 7.5 mg/L): 0.0389 ΔAbs482/min
v0/v0max (standard curve) (P99 beta-lactamase [8]; 7.5 mg/L): 14%
v0 (standard curve) (P99 beta-lactamase [8]; 10 mg/L): 0.025 ΔAbs482/min
v0/v0max (standard curve) (P99 beta-lactamase [8]; 10 mg/L): 9%
v0/v0max due to ampi-flu (P99 beta-lactamase [8]; sample 3, calculated from equation 3): 59%
